How the values were obtained:
Details in all cases: 72 h
Vero E6 [1] = assay: relative viability EC50 (midpoint between 100% and the lowest measured viability); higher = less toxic
Calu-3 [2] = assay: as above
Caco-2 [3] = assay: as above
U2OS [4] = assay: as above
HepG2 [5] = assay: as above
Vero E6 [6] = assay: drug sensitivity score (DSS) for viability; higher = more toxic; extreme values may be limits of the assay
Calu-3 [7] = assay: as above
Caco-2 [8] = assay: as above
U2OS [9] = assay: as above
HepG2 [10] = assay: as above
Vero E6 [11] = assay: cell viability relative to DMSO; higher = less toxic
Calu-3 [12] = assay: as above
Caco-2 [13] = assay: as above
U2OS [14] = assay: as above
HepG2 [15] = assay: as above

| Structure (SMILES) | relative viability EC50 (Vero E6 [1]) [µM] | relative viability EC50 (Calu-3 [2]) [µM] | relative viability EC50 (Caco-2 [3]) [µM] | relative viability EC50 (U2OS [4]) [µM] | relative viability EC50 (HepG2 [5]) [µM] | drug sensitivity score (Vero E6 [6]) | drug sensitivity score (Calu-3 [7]) | drug sensitivity score (Caco-2 [8]) | drug sensitivity score (U2OS [9]) | drug sensitivity score (HepG2 [10]) | cell viability (Vero E6 [11]; 1 nM) [%] | cell viability (Vero E6 [11]; 10 nM) [%] | cell viability (Vero E6 [11]; 100 nM) [%] | cell viability (Vero E6 [11]; 1000 nM) [%] | cell viability (Vero E6 [11]; 10000 nM) [%] | cell viability (Calu-3 [12]; 1 nM) [%] | cell viability (Calu-3 [12]; 10 nM) [%] | cell viability (Calu-3 [12]; 100 nM) [%] | cell viability (Calu-3 [12]; 1000 nM) [%] | cell viability (Calu-3 [12]; 10000 nM) [%] | cell viability (Caco-2 [13]; 1 nM) [%] | cell viability (Caco-2 [13]; 10 nM) [%] | cell viability (Caco-2 [13]; 100 nM) [%] | cell viability (Caco-2 [13]; 1000 nM) [%] | cell viability (Caco-2 [13]; 10000 nM) [%] | cell viability (U2OS [14]; 1 nM) [%] | cell viability (U2OS [14]; 10 nM) [%] | cell viability (U2OS [14]; 100 nM) [%] | cell viability (U2OS [14]; 1000 nM) [%] | cell viability (U2OS [14]; 10000 nM) [%] | cell viability (HepG2 [15]; 1 nM) [%] | cell viability (HepG2 [15]; 10 nM) [%] | cell viability (HepG2 [15]; 100 nM) [%] | cell viability (HepG2 [15]; 1000 nM) [%] | cell viability (HepG2 [15]; 10000 nM) [%] |
| --- | --- | --- | --- | --- | --- | --- | --- | --- | --- | --- | --- | --- | --- | --- | --- | --- | --- | --- | --- | --- | --- | --- | --- | --- | --- | --- | --- | --- | --- | --- | --- | --- | --- | --- | --- |
| CCn1c(=O)[nH]c2ccccc21 [1-EBIO] | > 10 | > 10 | > 10 | > 10 | > 10 | 0 | 0.3 | 0 | 0 | 0 | 97.4 | 97.5 | 89.7 | 98.2 | 104 | 99.1 | 105 | 104 | 106 | 81.8 | 94.4 | 93.5 | 98 | 100 | 91 | 95.7 | 94.3 | 104 | 98.4 | 93.2 | 96.7 | 98.6 | 91.4 | 84 | 110 |
| CCO[C@@H](Cc1ccc(OCCc2ccc(OS(C)(=O)=O)cc2)cc1)C(=O)O [tesaglitazar] | > 10 | > 10 | > 10 | > 10 | > 10 | 2.7 | 0 | 0 | 0 | 0 | 99.2 | 99.5 | 96 | 81.9 | 82.6 | 105 | 104 | 97.9 | 113 | 110 | 101 | 86 | 94.1 | 100 | 99.2 | 100 | 95.9 | 95.7 | 101 | 105 | 101 | 96.7 | 104 | 91.1 | 98.1 |
| COc1cc(OC)c(/C=C/S(=O)(=O)Cc2ccc(OC)c(OP(=O)(O)O)c2)c(OC)c1 [briciclib] | 0.0246 | 0.75 | 0.0392 | 0.161 | 0.0738 | 25.5 | 7.4 | 17.5 | 17.5 | 17 | 95.9 | 92.2 | 23.6 | 21.2 | 26.9 | 101 | 108 | 94.9 | 65.2 | 41 | 106 | 103 | 45.1 | 42 | 42.9 | 102 | 104 | 73.4 | 23.7 | 18.2 | 113 | 108 | 56.1 | 36 | 38.7 |
| COc1cc(Nc2ncc(F)c(Nc3ccc4c(n3)NC(=O)C(C)(C)O4)n2)cc(OC)c1OC [R406] | > 10 | > 10 | > 10 | > 10 | > 10 | 0.9 | 0.2 | 1.7 | 0 | 0.2 | 100 | 99 | 93.8 | 91 | 81.9 | 85.3 | 89.8 | 97.6 | 101 | 85.6 | 96.7 | 102 | 86.9 | 92.1 | 75.5 | 95.8 | 100 | 94.3 | 97.8 | 88.9 | 98.1 | 103 | 102 | 92.1 | 88.8 |
| C[C@]12CCC(=O)C=C1C=C[C@@H]1[C@@H]2CC[C@@]2(C)[C@H]1CC[C@@]2(O)CCC(=O)O [potassium-canrenoate] | > 10 | > 10 | > 10 | > 10 | > 10 | 0 | 0 | 0 | 0 | 0 | 102 | 91.6 | 102 | 88 | 100 | 102 | 94.7 | 107 | 101 | 104 | 93.8 | 112 | 77.3 | 88.9 | 105 | 97.1 | 104 | 98.9 | 100 | 98.9 | 106 | 89.4 | 85.4 | 87.9 | 99 |
| Cc1cc(S(=O)(=O)O)c2c(C)ccc(C(C)C)cc1-2 [sodium-gualenate] | > 10 | > 10 | > 10 | > 10 | > 10 | 0 | 0 | 0 | 0 | 0 | 98 | 106 | 101 | 93.2 | 92.8 | 109 | 91.8 | 112 | 103 | 100 | 90.8 | 95.5 | 92.2 | 92.8 | 89.3 | 92.8 | 95.2 | 98 | 101 | 104 | 97.3 | 87.1 | 103 | 94.6 | 108 |
| O=C(O)C1=CCCN(CCON=C(c2ccccc2)c2ccccc2)C1 [NNC-711] | > 10 | > 10 | > 10 | > 10 | > 10 | 0 | 0 | 0 | 0 | 0 | 90.4 | 103 | 101 | 97.4 | 114 | 108 | 100 | 102 | 101 | 98.9 | 102 | 95.6 | 104 | 96 | 101 | 98.7 | 95.5 | 103 | 101 | 98.5 | 93.4 | 100 | 99.1 | 109 | 101 |
| CC(=O)N1N=C(c2ccc(N)cc2)c2cc3c(cc2C[C@H]1C)OCO3 [talampanel] | > 10 | > 10 | > 10 | > 10 | > 10 | 0 | 0 | 0 | 0 | 0 | 94 | 95.3 | 95.9 | 95.5 | 97.4 | 98 | 99.6 | 98.2 | 95.6 | 97.3 | 94.7 | 104 | 94.7 | 96.9 | 98.6 | 99 | 101 | 96.7 | 95.5 | 97.7 | 101 | 93.9 | 100 | 107 | 99.7 |
| CC(=O)CC/C=C(\C)CC/C=C(\C)CC/C=C(\C)CCC=C(C)C [teprenone] | > 10 | > 10 | > 10 | > 10 | > 10 | 0 | 0 | 0 | 0 | 0 | 94.8 | 103 | 92.6 | 103 | 100 | 92.2 | 88.5 | 99.7 | 95.5 | 94.9 | 96.9 | 88.2 | 93.7 | 98.6 | 116 | 102 | 95.4 | 103 | 96.9 | 99.2 | 96.3 | 102 | 97.4 | 92.3 | 101 |
| N=C(N)NCCSSCCNC(=N)N [guanidinoethyldisulfide-bicarbonate] | > 10 | > 10 | > 10 | > 10 | > 10 | 0 | 0 | 0 | 0 | 0 | 97.5 | 96.3 | 102 | 96.2 | 91.4 | 99.7 | 106 | 99.9 | 98.6 | 108 | 101 | 87.2 | 93.6 | 101 | 91.8 | 106 | 96.8 | 100 | 96.8 | 102 | 93 | 101 | 96.4 | 97.9 | 93 |
| CC(C)C[C@@H](NC(=O)[C@H](C)NC(=O)CNC(=O)[C@@H](NC=O)C(C)C)C(=O)N[C@@H](C)C(=O)N[C@@H](C(=O)N[C@H](C(=O)N[C@@H](C(=O)N[C@@H](Cc1c[nH]c2ccccc12)C(=O)N[C@H](CC(C)C)C(=O)N[C@@H](Cc1c[nH]c2ccccc12)C(=O)N[C@H](CC(C)C)C(=O)N[C@@H](Cc1c[nH]c2ccccc12)C(=O)N[C@H](CC(C)C)C(=O)N[C@@H](Cc1c[nH]c2ccccc12)C(=O)NCCO)C(C)C)C(C)C)C(C)C [gramicidin] | > 10 | 2.55 | > 10 | 0.466 | > 10 | 0 | 3.7 | 0 | 12.3 | 0 | 99.2 | 94.3 | 94 | 92.5 | 98.3 | 109 | 94.2 | 87.9 | 95.7 | 42.9 | 90 | 118 | 54.6 | 106 | 90.7 | 97.5 | 94.3 | 32.4 | 97.4 | 20.3 | 101 | 100 | 26.4 | 114 | 121 |
| CCCCN1CCCCC1C(=O)Nc1c(C)cccc1C (stereo not given) [bupivacaine] | > 10 | > 10 | > 10 | > 10 | > 10 | 0 | 0 | 0 | 0 | 0 | 103 | 103 | 104 | 98.7 | 99.6 | 95.9 | 101 | 80.2 | 99.1 | 88.4 | 85.3 | 88.2 | 71.6 | 96.7 | 82.9 | 95.7 | 96.7 | 94.6 | 103 | 95.7 | 100 | 106 | 92.7 | 97.2 | 103 |
| CCCCCCCCCCCCCCCCCCOP(=O)([O-])OC1CC[N+](C)(C)CC1 [perifosine] | > 10 | > 10 | > 10 | > 10 | > 10 | 0 | 0.8 | 0 | 0 | 0 | 92.7 | 98.9 | 93.6 | 96.5 | 101 | 106 | 98 | 106 | 86.8 | 95.4 | 96.4 | 90.9 | 100 | 96.5 | 106 | 98.7 | 95.2 | 103 | 95 | 99.2 | 96.2 | 96 | 97.7 | 106 | 112 |
